Test results reported in the CheMixHub viscosity set.
± gives the uncertainty stated by the source.

Assay: xn = mol fraction of the nth substance listed

CCCC(=O)O + c1ccccc1
298.15 K, 101 kPa
Settings | viscosity [mPa·s]
x1 = 0.04 | 0.612 ± 0.016
x1 = 0.09 | 0.624 ± 0.017
x1 = 0.14 | 0.639 ± 0.017
x1 = 0.18 | 0.656 ± 0.017
x1 = 0.37 | 0.747 ± 0.02
x1 = 0.47 | 0.808 ± 0.021
x1 = 0.57 | 0.903 ± 0.024
x1 = 0.78 | 1.1 ± 0.029

CCCC(C)O (stereo not given) + CCCCCC
viscosity [mPa·s], 101.33 kPa
Settings | x1 = 0.1 | x1 = 0.2 | x1 = 0.3 | x1 = 0.4 | x1 = 0.5 | x1 = 0.6 | x1 = 0.7 | x1 = 0.8 | x1 = 0.9
303 K | 0.28 ± 0.007 | 0.31 ± 0.008 | 0.382 ± 0.01 | 0.537 ± 0.014 | 0.682 ± 0.017 | 0.878 ± 0.022 | 1.228 ± 0.031 | 1.588 ± 0.041 | 1.965 ± 0.051
313 K | 0.249 ± 0.006 | 0.277 ± 0.007 | 0.36 ± 0.009 | 0.44 ± 0.011 | 0.544 ± 0.014 | 0.802 ± 0.02 | 0.967 ± 0.025 | 1.21 ± 0.031 | 1.484 ± 0.038
323 K | 0.228 ± 0.006 | 0.254 ± 0.006 | 0.31 ± 0.008 | 0.385 ± 0.01 | 0.472 ± 0.012 | 0.634 ± 0.016 | 0.805 ± 0.02 | 0.981 ± 0.025 | 1.138 ± 0.029

CCCCNCCCC + CCCCCCCO
viscosity [mPa·s], 101.33 kPa
Settings | x1 = 0.0975 | x1 = 0.197 | x1 = 0.2901 | x1 = 0.3789 | x1 = 0.4808 | x1 = 0.5861 | x1 = 0.685 | x1 = 0.7862 | x1 = 0.8807
303.15 K | 4.226 ± 0.048 | 3.629 ± 0.041 | 3.099 ± 0.036 | 2.63 ± 0.03 | 2.15 ± 0.025 | 1.741 ± 0.021 | 1.432 ± 0.017 | 1.171 ± 0.015 | 0.9696 ± 0.012
313.15 K | 3.151 ± 0.036 | 2.716 ± 0.031 | 2.337 ± 0.027 | 2.013 ± 0.024 | 1.685 ± 0.02 | 1.393 ± 0.017 | 1.169 ± 0.015 | 0.9814 ± 0.012 | 0.8316 ± 0.011

CC[N+](CC)(CC)CC.[OH-] + O
viscosity [mPa·s], 101 kPa
Settings | x1 = 0.00313 | x1 = 0.0064 | x1 = 0.01341 | x1 = 0.02113 | x1 = 0.02968 | x1 = 0.03918 | x1 = 0.04982
298.15 K | 0.9776 ± 0.017 | 1.114 ± 0.02 | 1.248 ± 0.023 | 1.659 ± 0.031 | 2.07 ± 0.039 | 2.869 ± 0.056 | 3.679 ± 0.073
303.15 K | 0.8738 ± 0.016 | 0.9902 ± 0.018 | 1.107 ± 0.02 | 1.453 ± 0.027 | 1.8 ± 0.034 | 2.455 ± 0.048 | 3.111 ± 0.062
313.15 K | 0.7149 ± 0.013 | 0.8019 ± 0.014 | 0.8902 ± 0.016 | 1.144 ± 0.021 | 1.399 ± 0.026 | 1.856 ± 0.036 | 2.313 ± 0.046
323.15 K | 0.6005 ± 0.011 | 0.6598 ± 0.012 | 0.7359 ± 0.013 | 0.9278 ± 0.017 | 1.121 ± 0.021 | 1.45 ± 0.028 | 1.779 ± 0.035

CCCCNCCCC + c1ccccc1
viscosity [mPa·s], 101 kPa
Settings | x1 = 0.01077 | x1 = 0.02009 | x1 = 0.02993 | x1 = 0.03893 | x1 = 0.04865 | x1 = 0.05929 | x1 = 0.06883 | x1 = 0.07963 | x1 = 0.08917
303.15 K | 0.5674 ± 0.0043 | 0.5699 ± 0.0043 | 0.5746 ± 0.0044 | 0.5771 ± 0.0044 | 0.5809 ± 0.0044 | 0.584 ± 0.0044 | 0.5864 ± 0.0044 | 0.5907 ± 0.0045 | 0.5931 ± 0.0045
313.15 K | 0.4959 ± 0.004 | 0.4998 ± 0.004 | 0.503 ± 0.004 | 0.5067 ± 0.004 | 0.511 ± 0.0041 | 0.5134 ± 0.0041 | 0.515 ± 0.0041 | 0.5177 ± 0.0041 | 0.5198 ± 0.0041

CCCCNCCCC + CO
viscosity [mPa·s], 101 kPa
Settings | x2 = 0.0931 | x2 = 0.1959 | x2 = 0.2948 | x2 = 0.3963 | x2 = 0.4955 | x2 = 0.6075 | x2 = 0.7011 | x2 = 0.7979 | x2 = 0.9185
303.15 K | 0.745 ± 0.004 | 0.725 ± 0.004 | 0.706 ± 0.004 | 0.689 ± 0.004 | 0.663 ± 0.004 | 0.639 ± 0.004 | 0.609 ± 0.004 | 0.579 ± 0.003 | 0.548 ± 0.003
313.15 K | 0.643 ± 0.004 | 0.626 ± 0.004 | 0.61 ± 0.004 | 0.595 ± 0.004 | 0.569 ± 0.003 | 0.549 ± 0.003 | 0.525 ± 0.003 | 0.501 ± 0.003 | 0.476 ± 0.003
323.15 K | 0.543 ± 0.003 | 0.528 ± 0.003 | 0.513 ± 0.003 | 0.498 ± 0.003 | 0.483 ± 0.003 | 0.467 ± 0.003 | 0.452 ± 0.003 | 0.435 ± 0.003 | 0.413 ± 0.002

CC(CC(C)(C)C)CC(C)(C)CC(C)(C)C (stereo not given) + Cc1ccccc1
viscosity [mPa·s], 100 kPa
Settings | x2 = 0.4498 | x2 = 0.7104 | x2 = 0.8804
298.15 K | 1.499 ± 0.14 | 0.946 ± 0.09 | 0.684 ± 0.065
313.15 K | 1.196 ± 0.11 | 0.78 ± 0.074 | 0.58 ± 0.055

CCCC[N+](C)(CCCC)CCCC.N#C[N-]C#N + CC[n+]1ccn(C)c1.N#C[N-]C#N
Settings | viscosity [mPa·s]
323.15 K, 101 kPa, x2 = 0.2114 | 42.05 ± 1.7

CC(=O)OC(C)C + c1ccccc1
308.15 K, 101 kPa
Settings | viscosity [mPa·s]
x2 = 0.0634 | 0.4362 ± 0.0096
x2 = 0.2053 | 0.4409 ± 0.0097
x2 = 0.3085 | 0.4455 ± 0.0097
x2 = 0.4037 | 0.4502 ± 0.0098
x2 = 0.5044 | 0.4564 ± 0.0098
x2 = 0.6051 | 0.4587 ± 0.0099
x2 = 0.6985 | 0.4735 ± 0.01
x2 = 0.8005 | 0.4854 ± 0.01
x2 = 0.9366 | 0.502 ± 0.01

CCOC(=O)C(=O)OCC + CCCCCCCCCCO
303.15 K, 101.33 kPa
Settings | viscosity [mPa·s]
x1 = 0.1042 | 6.782 ± 0.037
x1 = 0.1986 | 5.372 ± 0.03
x1 = 0.2934 | 4.324 ± 0.025
x1 = 0.401 | 3.516 ± 0.021
x1 = 0.5111 | 2.851 ± 0.017
x1 = 0.5985 | 2.488 ± 0.015
x1 = 0.7108 | 2.078 ± 0.013
x1 = 0.8081 | 1.837 ± 0.011
x1 = 0.8863 | 1.691 ± 0.01

CCOC(=O)C(=O)OCC + c1ccccc1
303.15 K, 101 kPa
Settings | viscosity [mPa·s]
x1 = 0.0682 | 0.5918 ± 0.0061
x1 = 0.1415 | 0.6316 ± 0.0064
x1 = 0.2203 | 0.6727 ± 0.0068
x1 = 0.3054 | 0.7255 ± 0.0073
x1 = 0.3972 | 0.7942 ± 0.0079
x1 = 0.4972 | 0.8854 ± 0.0088
x1 = 0.6066 | 1.009 ± 0.0099
x1 = 0.7258 | 1.164 ± 0.011
x1 = 0.8557 | 1.374 ± 0.013
